Source: patent US20240158495A1, “Antibody Agents Directed Against Lymphocyte Activation Gene-3 (LAG-3) and Uses Thereof” (Tesaro, Inc., priority 2017, published 2024)

Columns and labels:
PARP activity = details: various cell lines, hydrogen peroxide, cited from earlier work
Human LAG-3 = molecular target: T1, Human LAG-3 (Homo sapiens, UniProt P18627); assay: SPR binding to recombinant soluble human LAG-3
T1 construct: either recombinant soluble or cell-surface-expressed human and cynomolgus monkey (cyno) LAG-3
T1 sequence (P18627 23-450 limits assumed): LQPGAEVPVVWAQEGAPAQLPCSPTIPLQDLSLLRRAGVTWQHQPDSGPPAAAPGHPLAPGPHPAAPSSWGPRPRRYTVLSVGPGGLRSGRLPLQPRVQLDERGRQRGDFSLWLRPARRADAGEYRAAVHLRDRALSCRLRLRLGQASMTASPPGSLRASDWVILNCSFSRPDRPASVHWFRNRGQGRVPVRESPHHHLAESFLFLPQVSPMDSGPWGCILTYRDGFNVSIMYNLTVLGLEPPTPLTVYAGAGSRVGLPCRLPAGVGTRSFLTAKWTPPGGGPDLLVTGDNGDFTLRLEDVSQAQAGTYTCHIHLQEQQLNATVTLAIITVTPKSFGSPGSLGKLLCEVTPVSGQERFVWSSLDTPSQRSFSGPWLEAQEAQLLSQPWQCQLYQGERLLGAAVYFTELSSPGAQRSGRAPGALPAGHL

Cyno LAG-3 = assay: SPR binding to recombinant soluble cyno LAG-3; design: species or system cynomolgus monkey
LAG-3/MHC-II binding = molecular target: T2, LAG-3/MHC-II binding (Homo sapiens, UniProt P18627); assay: LAG-3 reporter gene assay (LAG-3 Jurkat cells / MHC class II Raji cells, NFAT readout); type: cell-based; details: FIG. 3C
T2 construct: expressed in transfected cells; host or cells: Jurkat cells (NFAT reporter)
T2 sequence (P18627 23-525): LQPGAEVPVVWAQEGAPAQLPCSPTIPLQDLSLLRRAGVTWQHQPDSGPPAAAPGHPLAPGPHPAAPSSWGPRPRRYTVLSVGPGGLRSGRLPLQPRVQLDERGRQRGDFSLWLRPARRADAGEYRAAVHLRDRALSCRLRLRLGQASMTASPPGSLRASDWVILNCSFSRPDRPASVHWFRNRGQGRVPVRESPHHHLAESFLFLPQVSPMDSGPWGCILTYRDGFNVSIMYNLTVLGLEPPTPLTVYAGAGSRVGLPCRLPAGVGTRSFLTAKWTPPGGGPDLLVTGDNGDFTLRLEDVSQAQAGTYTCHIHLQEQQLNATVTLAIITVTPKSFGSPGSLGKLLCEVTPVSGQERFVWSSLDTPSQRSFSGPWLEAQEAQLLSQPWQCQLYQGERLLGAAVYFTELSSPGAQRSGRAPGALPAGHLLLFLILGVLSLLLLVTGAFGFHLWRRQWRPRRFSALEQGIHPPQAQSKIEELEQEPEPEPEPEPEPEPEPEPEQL
Text: Specifically, this example uses Raji cells, which express high levels of endogenous MHC class II.

[1] = tested on: primary human CD4+ T cells; assay: Mixed lymphocyte reaction (MLR) assay, IL-2 secretion; type: cell-based; details: 48 hours, antibody alone, FIG. 4
Procedure: This example describes the ability of an exemplary anti-LAG-3 antibody agent to activate primary human T cells in vitro. […] In this MLR assay, primary human CD4+ T cells were mixed with monocyte-derived dendritic cells from a different donor. In these studies, dendritic cells and allogeneic CD4+ T cells were incubated in the presence of an exemplary anti-LAG-3 antibody agent or isotype control for 48 hours, and activation of T cells was determined by measuring the level of interleukin-2 (IL-2) secretion.

human PBMCs = assay: IL-2 release from SEB-stimulated human PBMCs; type: cell-based; details: 100 ng/mL SEB for 3 days, 5 donors, FIG. 5
Procedure: Specifically human PBMCs (from 5 donors) were stimulated with 100 ng/mL SEB for 3 days and then IL-2 induction was assessed.

LAG-3 = molecular target: T3, LAG-3 (Homo sapiens, UniProt P18627); assay: Receptor occupancy on patient T cells (direct binding assay, flow cytometry); type: in vivo; details: patients, early time points, FIG. 10C
T3 construct: PBMCs were isolated from fresh whole blood samples from patients; endogenous in cells; host or cells: T cells in PBMCs from patient whole blood
T3 sequence (P18627 23-525): T2 sequence (P18627 23-525)
Text: The saturation binding aliquot was run in parallel as a control to assess the range of the assay.

Row | Compound | IC90 (PARP activity; read-out: inhibitory concentration at 90% of control (IC90)) [nM] | IC50 (PARP activity) [nM] | Kassoc (Human LAG-3) | Kdissoc (Human LAG-3) [s⁻¹] | Kassoc (Cyno LAG-3) | Kdissoc (Cyno LAG-3) [s⁻¹] | disruption of binding of LAG-3 on Jurkat cells to MHC Class II expressing Raji cells (LAG-3/MHC-II binding) | IL-2 production [1] | IL-2 production (human PBMCs) | receptor occupancy (RO) (LAG-3; 80 mg dose) | receptor occupancy (RO) (LAG-3; 240 mg dose)
1 | NC(=O)c1cccc2cn(-c3ccc([C@@H]4CCCNC4)cc3)nc12 [Niraparib, (3S)-3-[4-{7-(aminocarbonyl)-2H-indazol-2-yl}phenyl]piperidine] | ~50 | ~4 | – | – | – | – | – | – | – | – | –
2 | TSR-033: anti-LAG-3 antibody agent comprising a heavy chain of SEQ ID NO: 21 and a light chain of SEQ ID NO: 22 | – | – | 1.3 × 10^5 (ms)^−1 | 0.00013 | 1.1 × 10^5 (ms)^−1 | 0.00026 | potent antagonist | dose-dependently increased IL-2 production | dose-dependently increased IL-2 production | approximately 50% | approaches saturation
